This note sets out measurements from US20260053886A1, “ANTICANCER AGENT” (The Trustees of Princeton University, priority 2022, published 2026).

SMILES strings stand for the structures. ≈ marks a conversion by molar mass, not a printed value. Where “and” joins values, the source holds several entries; their conditions need not be identical. Identical values can stand only once. Like-named read-outs stand apart in the source and are kept apart here. Non-standard residues stand in square brackets, D forms with d. Residues, ends and D or L forms follow the SMILES beside them. Phe(βS-OH) = N[C@H](C(=O)O)[C@@H](O)c1ccccc1; NMeH = CN[C@@H](Cc1c[nH]cn1)C(=O)O; Hyp = O=C(O)[C@@H]1C[C@@H](O)CN1; NMeF = CN[C@@H](Cc1ccccc1)C(=O)O; NMeL = CN[C@@H](CC(C)C)C(=O)O; Dap = NC[C@H](N)C(=O)O; Sar = CNCC(=O)O

Assay [1] concerns breast cancer cell line MDA-MB-231. Put plainly: anticancer assay, growth inhibition, dose-response. In kind it is cell-based.
For the next assay, the system named is S. aureus Newman. Briefly: effect on microbial growth (MIC). In kind it is cell-based.
Another assay relates to S. cerevisiae. Briefly: effect on microbial growth (MIC).
Another assay has as its system B. subtilis 3610. Put plainly: effect on microbial growth (MIC). In kind it is cell-based.
For another assay, the system named is P. aeruginosa PAO1. Briefly: effect on microbial growth (MIC). The assay is classed as cell-based.
A further assay has as its system E. faecalis OG1RF. Put plainly: effect on microbial growth (MIC). The assay is classed as cell-based.
Assay [2] relates to colon cancer cell line HCT116. Put plainly: anticancer assay, growth inhibition, dose-response. The assay is classed as cell-based.
The test system of a further assay is E. coli K12. Briefly: effect on microbial growth (MIC).
The subject of another assay is M. luteus. Put plainly: effect on microbial growth (MIC). In kind it is cell-based.
A further assay has as its system S. pombe. Put plainly: effect on microbial growth (MIC).
The subject of a further assay is V. cholerae. Briefly: effect on microbial growth (MIC).
Another assay deals with S. epidermidis. Briefly: effect on microbial growth (MIC). In kind it is cell-based.
A further assay deals with B. subtilis 168. Briefly: effect on microbial growth (MIC).
The subject of assay [3] is momomycin production in S. rimosus Δrim::aprR. Put plainly: induction of momomycin production (HR-HPLC-MS extracted ion chromatograms). In kind it is cell-based. To be noted: Streptomyces rimosus, 120 h, read-out: half-maximal elicitor concentration (EC50). The method, then: A seed culture of S. rimosus Δrim::apr^R was inoculated in TSBY medium as described above, which was used to start fermentation cultures in 125 mL Erlenmeyer flasks with the final concentration of cells of 0.05% (w/v). Each flask contained 25 mL R4 medium, supplemented with various concentrations of elicitors or equal volumes of DMSO as control. After 5 d of cultivation at 30° C./250 rpm, the cultures were spun down and processed by solid phase extraction (SPE). Specifically, 5 mL of supernatant was filtered and loaded onto STRATA® C18-E column (Phenomenex, 55 μm, 70 Å, 50 mg), which had been activated with MeOH and equilibrated with H2O. The column was washed with 1 mL H2O and eluted by 1 mL MeOH. The samples in MeOH were dried in vacuo, resuspended in 50 μL MeCN in H2O, and subjected to HR-HPLC-MS analysis.
(§1) Separately, small-scale fermentation of S. rimosus Δrim::apr^R was performed as described above with the following concentrations of phytosphingosine: 0, 1.25, 2.5, 5, 10, 20, 40, 80, 160 μM. After 5 d, cells were collected by centrifugation (4000 g, 1 h) and the wet weight of pellets were measured.
Cell viability relative to DMSO-treated samples were graphed and fit to a dose-response curve in Prism 9 to obtain the IC50 value. In addition, culture supernatants were processed via SPE as described above and samples were subjected to HR-HPLC-MS analysis. […]

Another assay concerns S. rimosus Δrim::aprR. Briefly: antimicrobial activity, cell viability (wet pellet weight) relative to DMSO. The assay is classed as cell-based. To be noted: Streptomyces rimosus, 120 h, read-out: half-maximal inhibitory concentration (IC50). As to the method: as §1
Cell viability relative to DMSO-treated samples were graphed and fit to a dose-response curve in Prism 9 to obtain the IC50 value. In addition, culture supernatants were processed via SPE as described above and samples were subjected to HR-HPLC-MS analysis. The extracted ion chromatograms of momomycin were integrated and the data were graphed to represent the induction effect of phytosphingosine on momomycin production at different concentrations. All data points were taken from biological duplicates.

Regarding `CC(C)C[C@H]1C(=O)N(C)[C@@H](Cc2ccccc2)C(=O)N[C@@H](Cc2ccc(O)cc2)C(=O)N[C@@H]([C@@H](O)c2ccccc2)C(=O)N[C@@H](CC(=O)O)C(=O)N(C)CC(=O)N[C@@H](CN)C(=O)N2C[C@H](O)C[C@H]2C(=O)N[C@@H](CN)C(=O)N(C)[C@@H](Cc2ccccc2)C(=O)N(C)[C@@H](Cc2cnc[nH]2)C(=O)N1C` [momomycin] (cyclo(D[Sar][Dap][Hyp][Dap][NMeF][NMeH][NMeL][NMeF]Y[Phe(βS-OH)])), the IC50 in [1] (adenocarcinoma MDA-MB-231, FIG. 2B, read-out: IC50) was 1200 nM; in assay [1] (adenocarcinoma MDA-MB-231, dose-response curve FIG. 2B) it was 1.7 µg/mL; in [2] (colorectal carcinoma / colon cancer cell line HCT116, FIG. 2A, read-out: IC50), 1100 nM and ~1100 nM; in assay [2] (colorectal carcinoma HCT116, dose-response curve FIG. 2A) it was 1.5 µg/mL. The “minimum inhibitory concentration (MIC)” value in the assay on S. aureus Newman, with S. cerevisiae, in the assay with B. subtilis 3610, in the assay with P. aeruginosa PAO1, in the assay with E. faecalis OG1RF and in the assay with E. coli K12 was “above 64 μg/mL” each time. Further, the “minimum inhibitory concentration (MIC)” value is 64 µg/mL (≈ 45.8 µM) in the assay with M. luteus; “above 64 μg/mL” in the assay with S. pombe; “above 64 μg/mL” with V. cholerae; “above 64 μg/mL” in the assay on S. epidermidis; “above 64 μg/mL” in the assay with B. subtilis 168.

With `CCCCCCCCCCCCCC[C@@H](O)[C@@H](O)[C@@H](N)CO` [phytosphingosine], in assay [3], the EC50 was 16.9 µM. Besides, the IC50 in the assay on S. rimosus Δrim::aprR came out at 37.8 µM.
